From patent US20230064978A1, “CYCLIC PEPTIDE RECEPTOR LANTHIONINE SYNTHETASE C-LIKE PROTEIN (LANCL) AND USES THEREOF” (LATERAL IP PTY LTD, priority 2019, published 2023)

Test system: A549 cells
Assay: Confocal imaging of LAT9991F-PAL binding and LANCL1 co-localization, with siRNA knockdown and competitors, in A549 cells
Format: cell-based
Conditions: SiLANCL1 A549 cells; competitor 25 μM
Protocol: A photoactivatable analog of LAT8881 (LAT9991F (SEQ ID NO:13)-PAL), was used to conduct the experiments. A549 or NCI-H358 cells were treated with LAT9991F-PAL at 2.5 μM during 30 minutes. Fluorescent signal was recorded after that LAT9991F-PAL was immobilized on its target(s) site by UV-crosslinking and the LAT9991F-PAL-target complexes were labeled with the green-fluorescent Alexa Fluor 488 alkyne dye by click-chemistry. Control cells were treated with the vehicle, dimethyl sulfoxide (DMSO), and with LAT9991F-PAL in combination with a large excess of the parent drug LAT8881 or other competitors, GSH, NSC61610 or ABA to evaluate, respectively, the non-specific fluorescent background and the specificity of the staining. For colocalization experiments, subsequently, immunofluorescence staining with an anti-LANCL1 or LANCL2 antibodies and an Alexa 568 (red) conjugated secondary antibody was performed. Images stacks of cells labeled with probes were collected and evaluated for the degree of colocalization of LAT9991F-PAL-target complexes and LANCL1 or LANCL2 using either the Measure Colocalization plugin in Metamorph or the JACoP plugin in ImageJ).
A549 or NCI-H358 cells (ATCC CCL-185 and ATCC CRL-5807, respectively) were cultured in appropriate medium containing 10% heat-inactivated FBS (Dutscher, #SV30160-036), 1% penicillin/streptomycin (Gibco, #15140-122) and maintained in a humidified 37° C. incubator with 5% CO2.
LAT9991F-PAL was dissolved in DMSO to make a 10 mM stock solution. Intermediate solutions at 25 μM and 2.5 μM were made in the culture medium from the 10 mM stock solutions of LAT8881 and LAT9991F-PAL, respectively. A two-fold dilution into PBS of each intermediate solution was used for cell treatment. A stock solution at 10 mM was prepared for the other competitors as GSH, NSC61610 and ABA. A final concentration at 25 μM was used for the assay.
A549 or NCI-H358 cells were seeded onto ibidiTreat Polymer Coverslips (Ibidi, #80826) at 2.5×10^5 cells/cm^2 in 200 μl of complete medium. After 24 hours, the medium was removed and cells were washed with PBS (Gibco, #10010049) and then pre-treated with the Taxol at 1 μM for 3 hours or with H2O2 25 μM for 2 hours. Cells were washed twice with PBS. Induced stress cells or control cells were then exposed to LAT9991F-PAL (2.5 μM) in PBS for 30 minutes, in the presence or absence of LAT8881 (25 μM), or the other compounds used as a competitor, and pre-incubated 10 minutes. After treatment, cells were washed with cold PBS and UV-irradiated (365 nm) in PBS for 20 min. After fixation with 4% paraformaldehyde and permeabilization (0.5% Triton/PBS) (Image-iT™ Fixation/Permeabilization Kit, ThermoFisher, #R37602), the bioorthogonal reaction with Alexa Fluor 488 Alkyne (1 μM) (ThermoFisher, #A10267) was performed at 25° C. using the Click-iT™ Cell Reaction Buffer Kit (ThermoFisher, #C10269) according to the manufacturer protocol. After click reaction, cells were washed twice with PBS, blocked with 3% BSA in PBS for 1 hour and stained with Hoechst 33342 dye (ThermoFisher, #H1399).
For colocalization experiments, cells were further incubated overnight at 4° C. with a mouse anti-LanCL1 antibody (Invitrogen, PAS-57-107) (dilution 1:1000) or LanCL2 (Atlas Antibodies HPA019711) (dilution 1:1000) in 3% BSA in PBS, washed twice with PBS, and then incubated respectively with a goat anti-mouse […] (Molecular Probes, #A21467) (dilution 1:800) for 1 h in 3% BSA in PBS. After three further washing steps with PBS, cells were embedded in Ibidi Mounting Medium (ibidi, #50001). The specimens were kept at 4° C. in the dark until analysis.
Images were acquired on an Axiovert200M (Zeiss) microscope using a CSU-W1 Yokogawa confocal unit. This microscope is equipped with a plan Apochromat X40 dry objective numerical aperture (NA) 0.95 and a Neofluar X100 oil immersion objective NA 1.45. Images were capture with an EMCCD camera (Prior, ProEM 1024×1024).

YLRIVQCRSVEGSCGF [LAT8881, a cyclic peptide fragment of human growth hormone]
Competition of LAT9991F-PAL binding by excess competitor: partially competed off
